Measurements: ChEMBL document CHEMBL6109137, “Design, Synthesis, Evaluation, and SAR of 5-Phenylisoindoline Derivatives, a Potent Class of Small-Molecule Inhibitors Targeting the Programmed Cell Death-1/Programmed Cell Death-Ligand 1 (PD-1/PD-L1) Interaction” (J Med Chem, 2025)
Activity calls are given as the source filed them. No cut-off for these calls is given here.

Target: Programmed cell death protein 1/Programmed cell death 1 ligand 1 (Homo sapiens, UniProt Q9NZQ7)
Assay: Inhibition of interaction of PD-1/PD-L1 (unknown origin) by HTRF analysis
Format: protein-complex assay
Details: not given

Sequence of Programmed cell death protein 1/Programmed cell death 1 ligand 1 (Q15116 whole entry): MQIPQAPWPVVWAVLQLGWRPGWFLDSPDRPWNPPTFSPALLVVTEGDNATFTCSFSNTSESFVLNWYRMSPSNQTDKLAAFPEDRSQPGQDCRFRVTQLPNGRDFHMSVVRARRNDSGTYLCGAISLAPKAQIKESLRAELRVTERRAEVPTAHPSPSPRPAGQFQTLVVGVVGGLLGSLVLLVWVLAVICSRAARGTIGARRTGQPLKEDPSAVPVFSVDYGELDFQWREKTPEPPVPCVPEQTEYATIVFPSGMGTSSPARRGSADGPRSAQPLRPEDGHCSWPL
Sequence of Programmed cell death protein 1/Programmed cell death 1 ligand 1 (Q9NZQ7 whole entry): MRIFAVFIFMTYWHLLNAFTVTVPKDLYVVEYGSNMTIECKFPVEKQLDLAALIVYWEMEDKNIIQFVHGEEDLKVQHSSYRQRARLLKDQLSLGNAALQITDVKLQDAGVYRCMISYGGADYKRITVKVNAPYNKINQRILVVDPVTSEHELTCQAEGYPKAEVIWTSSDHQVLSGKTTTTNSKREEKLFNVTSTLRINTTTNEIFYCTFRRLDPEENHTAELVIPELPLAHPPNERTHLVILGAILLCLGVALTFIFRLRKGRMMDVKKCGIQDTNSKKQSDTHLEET

| SMILES | IC50 [nM] |
| --- | --- |
| N#Cc1c(-c2ccccc2)cccc1-c1ccc2c(c1)C(=O)NC2=O | > 10000 |
| COC(=O)C[C@H](N)C(=O)N1Cc2ccc(-c3cccc(-c4ccccc4)c3C)cc2C1 | 416 |
| Fc1c(-c2ccccc2)cccc1-c1ccc2c(c1)CNC2 | 95.6 |
| O=C([C@@H]1CCCCN1)N1Cc2ccc(-c3cccc(-c4ccccc4)c3Cl)cc2C1 | 11.4 |
| Cc1c(-c2ccccc2)cccc1-c1ccc2c(c1)CN(C(=O)[C@@H]1C[C@H](O)CN1)C2 | 84.5 |
| O=C([C@@H]1CCCCN1)N1Cc2ccc(-c3cccc(-c4ccc5c(c4)OCCO5)c3Cl)cc2C1 | 26.2 |
| C[C@H](N)C(=O)N1Cc2ccc(-c3cccc(-c4ccc5c(c4)OCCO5)c3C#N)cc2C1 | 24.5 |
| Cc1c(-c2ccccc2)cccc1-c1ccc2c(c1)CN(C(=O)[C@@H](N)CCCCN)C2 | 539 |
| N#Cc1c(-c2ccccc2)cccc1-c1ccc2c(c1)C(=O)NC2 | 1520 |
| N#Cc1c(-c2ccc3c(c2)CNC3)cccc1-c1ccc2c(c1)OCCO2 | 18.5 |
| Cc1c(-c2ccccc2)cccc1-c1ccc2c(c1)CN(C(=O)[C@@H](N)CC(=O)O)C2 | 142 |
| Cc1c(-c2ccc3c(c2)CNC3)cccc1-c1ccc2c(c1)OCCO2 | 35.8 |
| Cc1c(-c2ccccc2)cccc1-c1ccc2c(c1)CN(C(=O)[C@@H]1CCCCN1)C2 | 19.3 |
| Oc1c(-c2ccccc2)cccc1-c1ccc2c(c1)CNC2 | > 10000 |
| C[C@H](N)C(=O)N1Cc2ccc(-c3cccc(-c4ccccc4)c3C#N)cc2C1 | 50 |
| Clc1c(-c2ccc3c(c2)CNC3)cccc1-c1ccc2nonc2c1 | 880 |
| N#Cc1c(-c2ccccc2)cccc1-c1ccc2c(c1)CN(C(=O)[C@@H]1CCCN1)C2 | 85.7 |
| C[C@H](N)C(=O)N1Cc2ccc(-c3cccc(-c4ccccc4)c3Cl)cc2C1 | 12.9 |

| SMILES | IC50 [nM] |
| --- | --- |
| Cc1c(-c2ccccc2)cccc1-c1ccc2c(c1)CN(C(=O)[C@@H](N)CO)C2 | 94.8 |
| Cc1c(-c2ccccc2)cccc1-c1ccc2c(c1)CN(C(=O)CN)C2 | 293 |
| Cc1c(-c2ccccc2)cccc1-c1ccc2c(c1)CN(C(=O)[C@H](C)N)C2 | 30.4 |
| O=C([C@@H]1CCCN1)N1Cc2ccc(-c3cccc(-c4ccccc4)c3Cl)cc2C1 | 17.9 |
| O=C([C@@H]1CCCN1)N1Cc2ccc(-c3cccc(-c4ccc5c(c4)OCCO5)c3Cl)cc2C1 | 15.6 |
| N#Cc1c(-c2ccccc2)cccc1-c1ccc2c(c1)CNC2=O | 145 |
| Cc1c(-c2ccccc2)cccc1-c1ccc2c(c1)CN(C(=O)[C@@H]1CCCN1)C2 | 7.1 |
| Cc1c(-c2ccccc2)cccc1-c1ccc2c(c1)CN(C(=O)[C@H]1NCCC1O)C2 (stereo not given in full) | 24.2 |
| Cc1c(-c2ccccc2)cccc1-c1ccc2c(c1)C(=O)NC2=O | > 10000 |
| NCC(=O)N1Cc2ccc(-c3cccc(-c4ccccc4)c3Cl)cc2C1 | 90.3 |
| Cl.Clc1c(-c2ccc3c(c2)CNC3)cccc1-c1ccc2c(c1)OCCO2 | 5.9 |
| N#Cc1c(-c2ccccc2)cccc1-c1ccc2c(c1)CN(C(=O)[C@@H]1CCCCN1)C2 | 64.2 |
| N#Cc1c(-c2ccccc2)cccc1-c1ccc2c(c1)CNC2 | 47.6 |
| Clc1c(-c2ccccc2)cccc1-c1ccc2c(c1)CNC2 | 9.4 |
| Nc1c(-c2ccccc2)cccc1-c1ccc2c(c1)CNC2 | 194 |
| COc1c(-c2ccccc2)cccc1-c1ccc2c(c1)CNC2 | 115 |
| c1ccc(-c2cccc(-c3ccc4c(c3)CNC4)c2)cc1 | > 10000 |

Target: T1, Programmed cell death protein 1/Programmed cell death 1 ligand 1 (Homo sapiens) (UniProt Q15116+Q9NZQ7)
Assay: Inhibition of PD-1/PD-L1 (unknown origin) interaction in human PBMC cells assessed as increase in IFN-gamma level at 100 nM pretreated with anti-CD3/CD28 and PD-L1 followed by compound addition measured after 72 hrs by ELISA
Format: cell-based
Details: not given

| SMILES | inhibition |
| --- | --- |
| Clc1c(-c2ccccc2)cccc1-c1ccc2c(c1)CNC2 | Active |

Target: T1, Programmed cell death protein 1/Programmed cell death 1 ligand 1 (Homo sapiens)
Assay: Inhibition of PD-1/PD-L1 (unknown origin) interaction in human PBMC cells assessed as increase in IFN-gamma level at 100 to 1000 nM pretreated with anti-CD3/CD28 and PD-L1 followed by compound addition measured after 72 hrs by ELISA
Format: cell-based
Details: dose 100-1000 nM

| SMILES | inhibition |
| --- | --- |
| Cl.Clc1c(-c2ccc3c(c2)CNC3)cccc1-c1ccc2c(c1)OCCO2 | inactive |

Test system: not listed separately
Assay: Cytotoxicity against human PBMC cells assessed as inhibition of cell viability at 50 to 5000 nM by CCK8 assay
Format: toxicity, cell-based
Details: 5 µM, dose 50-5000 nM

| SMILES | Activity |
| --- | --- |
| Cl.Clc1c(-c2ccc3c(c2)CNC3)cccc1-c1ccc2c(c1)OCCO2 | Toxic |

Test system: not listed separately
Assay: Cytotoxicity against human PBMC cells assessed as inhibition of cell viability by CCK8 assay
Format: toxicity, cell-based
Details: not given

| SMILES | IC50 [nM] |
| --- | --- |
| O=C([C@@H]1CCCN1)N1Cc2ccc(-c3cccc(-c4ccc5c(c4)OCCO5)c3Cl)cc2C1 | > 5000 |
| Clc1c(-c2ccccc2)cccc1-c1ccc2c(c1)CNC2 | > 5000 |
